# ChEMBL document CHEMBL5579826, “Discovery of autophagy-tethering compounds as potent NLRP3 degraders for IBD Immunotherapy” (Eur J Med Chem, 2024)
# The source made the active and inactive calls. The calls are words filed in the database; no cut-off is given here.
# Columns and labels:
# [1] = target: Interleukin-1 beta (Homo sapiens) (UniProt P01584); experiment: Inhibition of IL-1beta in PMA-differentiated human THP-1 cells at 100 nM co-incubated with compound and LPS for 24 hrs by ELISA relative to control; format: cell-based
# [2] = target: Interleukin-1 beta (Homo sapiens) (UniProt P01584); experiment: Inhibition of IL-1beta in PMA-differentiated human THP-1 cells at 200 nM co-incubated with compound and LPS for 24 hrs by ELISA relative to control; format: cell-based
# THP-1 [3] = experiment: Cytotoxicity against PMA-differentiated human THP-1 cells assessed as reduction in cell viability at 50 to 5000 nM incubated for 24 hrs by MTT assay; format: toxicity, cell-based; details: thp-1, 24 h, 5 µM, dose 50-5000 nM
# THP-1 [4] = experiment: Effect on NLRP3 mRNA expression in PMA-differentiated human THP-1 cells co-incubated with compound and LPS for 24 hrs by qRT-PCR analysis; format: functional, cell-based
# [5] = Half life in C57BL/6J mouse at 5 mg/kg, iv measured for 24 hrs by LC-MS/MS analysis; format: ADME, organism-based; details: in vivo
# [6] = AUC (0 to t) in C57BL/6J mouse at 5 mg/kg, iv measured for 24 hrs by LC-MS/MS analysis; format: ADME, organism-based; details: in vivo
# [7] = AUC (0 to infinity) in C57BL/6J mouse at 5 mg/kg, iv measured for 24 hrs by LC-MS/MS analysis; format: ADME, organism-based; details: in vivo
# [8] = Apparent volume of distribution in C57BL/6J mouse at 5 mg/kg, iv measured for 24 hrs by LC-MS/MS analysis; format: ADME, organism-based; details: in vivo, read-out: Vz
# [9] = Clearance in C57BL/6J mouse at 5 mg/kg, iv measured for 24 hrs by LC-MS/MS analysis; format: ADME, organism-based; details: in vivo
# [10] = Volume of distribution at steady state in C57BL/6J mouse at 5 mg/kg, iv measured for 24 hrs by LC-MS/MS analysis; format: ADME, organism-based; details: in vivo, read-out: Vdss
# [11] = Half life in C57BL/6J mouse at 5 mg/kg, ip measured for 24 hrs by LC-MS/MS analysis; format: ADME, organism-based; details: in vivo
# [12] = Cmax in C57BL/6J mouse at 5 mg/kg, ip measured for 24 hrs by LC-MS/MS analysis; format: ADME, organism-based; details: in vivo
# [13] = AUC (0 to t) in C57BL/6J mouse at 5 mg/kg, ip measured for 24 hrs by LC-MS/MS analysis; format: ADME, organism-based; details: in vivo
# [14] = AUC (0 to infinity) in C57BL/6J mouse at 5 mg/kg, ip measured for 24 hrs by LC-MS/MS analysis; format: ADME, organism-based; details: in vivo
# [15] = Oral bioavailability in C57BL/6J mouse at 5 mg/kg measured for 24 hrs by LC-MS/MS analysis; format: ADME, organism-based; details: in vivo
# Mus musculus [16] = experiment: Anti-inflammatory activity in DSS-induced colitis C57BL/6 mouse model assessed as reduction in weight loss at 5 to 20 mg/kg, ip administered daily for 10 days; format: functional, organism-based; details: dose 5-20 mg/kg, time 10.0 day
# Mus musculus [17] = experiment: Anti-inflammatory activity in DSS-induced colitis C57BL/6 mouse model assessed as suppression of disease activity index administered intraperitoneally daily for 10 days; format: functional, organism-based; details: dose 5-20 mg/kg, route ip, time 10.0 day
# Mus musculus [18] = experiment: Anti-inflammatory activity in DSS-induced colitis C57BL/6 mouse model assessed as reduction in colon tissue shortening at 5 to 20 mg/kg, ip administered daily for 10 days; format: functional, organism-based; details: dose 5-20 mg/kg, time 10.0 day
# Mus musculus [19] = experiment: Anti-inflammatory activity in DSS-induced colitis C57BL/6 mouse model assessed as reduction in intestinal mucosal damage in colon tissue at 5 to 20 mg/kg, ip administered daily for 10 days by H and E staining based analysis; format: functional, organism-based; details: dose 5-20 mg/kg, time 10.0 day
# Mus musculus [20] = experiment: Anti-inflammatory activity in DSS-induced colitis C57BL/6 mouse model assessed as reduction in inflammatory cell infiltration in colon tissue at 5 to 20 mg/kg, ip administered daily for 10 days by H and E staining based analysis; format: functional, organism-based; details: dose 5-20 mg/kg, time 10.0 day
# Mus musculus [21] = experiment: Anti-inflammatory activity in DSS-induced colitis C57BL/6 mouse model assessed as reduction in loss of intestinal crypts in colon tissue at 5 to 20 mg/kg, ip administered daily for 10 days by H and E staining based analysis; format: functional, organism-based; details: dose 5-20 mg/kg, time 10.0 day
# Mus musculus [22] = experiment: Anti-inflammatory activity in DSS-induced colitis C57BL/6 mouse model assessed as reduction in NLRP3 level in colon tissue at 5 to 20 mg/kg, ip administered daily for 10 days by IHC analysis; format: functional, organism-based; details: dose 5-20 mg/kg, time 10.0 day
# Mus musculus [23] = experiment: Anti-inflammatory activity in DSS-induced colitis C57BL/6 mouse model assessed as reduction in IL-1beta level in colon tissue at 5 to 20 mg/kg, ip administered daily for 10 days by IHC analysis; format: functional, organism-based; details: dose 5-20 mg/kg, time 10.0 day
# Mus musculus [24] = experiment: Anti-inflammatory activity in DSS-induced colitis C57BL/6 mouse model harboring NLRP3 KO assessed as reduction in colon length shortening at 20 mg/kg, ip administered daily for 10 days; format: functional, organism-based; details: time 10.0 day
# Mus musculus [25] = experiment: Anti-inflammatory activity in DSS-induced colitis C57BL/6 mouse model harboring NLRP3 KO assessed as reduction in intestinal mucosal damage in colon tissue at 20 mg/kg, ip administered daily for 10 days by H and E staining based analysis; format: functional, organism-based; details: time 10.0 day
# Mus musculus [26] = experiment: Anti-inflammatory activity in DSS-induced colitis C57BL/6 mouse model harboring NLRP3 KO assessed as reduction in inflammatory cell infiltration in colon tissue at 20 mg/kg, ip administered daily for 10 days by H and E staining based analysis; format: functional, organism-based; details: time 10.0 day
# Mus musculus [27] = experiment: Anti-inflammatory activity in DSS-induced colitis C57BL/6 mouse model harboring NLRP3 KO assessed as reduction in loss of intestinal crypts in colon tissue at 20 mg/kg, ip administered daily for 10 days by H and E staining based analysis; format: functional, organism-based; details: time 10.0 day
# Mus musculus [28] = experiment: Anti-inflammatory activity in DSS-induced colitis C57BL/6 mouse model harboring NLRP3 KO assessed as reduction in IL-1beta level at 20 mg/kg, ip administered daily for 10 days […]; format: functional, organism-based; details: time 10.0 day
# Interleukin-1 beta (Homo sapiens), sequence (P01584 117-269 limits assumed): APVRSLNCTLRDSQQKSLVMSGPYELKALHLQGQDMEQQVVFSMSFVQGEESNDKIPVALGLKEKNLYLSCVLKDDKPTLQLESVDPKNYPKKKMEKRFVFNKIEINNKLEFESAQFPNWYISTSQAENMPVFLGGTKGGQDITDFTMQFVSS
smiles,measurement,setting,value
COc1cc(/C=C2/C(=O)N(CCOCCOCCOCCOc3ccc(S(=O)(=O)NC(=O)Nc4c5c(cc6c4CCC6)CCC5)cc3)c3ccc(Br)cc32)cc(Br)c1O,inhibition,[1],57.6%
same,inhibition,[2],32.7%
COc1ccc(Cl)cc1C(=O)NCCc1ccc(S(=O)(=O)NCCOCCN2C(=O)/C(=C/c3cc(Br)c(O)c(OC)c3)c3cc(Br)ccc32)cc1,inhibition,[1],39%
same,inhibition,[2],23.1%
COc1cc(/C=C2/C(=O)N(CCOCCOc3ccc(S(=O)(=O)NC(=O)Nc4c5c(cc6c4CCC6)CCC5)cc3)c3ccc(Br)cc32)cc(Br)c1O,inhibition,[1],35.6%
same,inhibition,[2],59.2%
COc1cc(/C=C2/C(=O)N(CCCCOc3ccc(S(=O)(=O)NC(=O)Nc4c5c(cc6c4CCC6)CCC5)cc3)c3ccc(Br)cc32)cc(Br)c1O,inhibition,[1],19.2%
same,inhibition,[2],40.8%
O=C(Nc1c2c(cc3c1CCC3)CCC2)NS(=O)(=O)c1ccc(OCCOCCOCCN2C(=O)/C(=C/c3cc(Br)c(O)c(Br)c3)c3cc(Br)ccc32)cc1,inhibition,[1],17.8%
same,inhibition,[2],45.2%
COc1cc(/C=C2/C(=O)N(CCCCCCCCCCCCOc3ccc(S(=O)(=O)NC(=O)Nc4c5c(cc6c4CCC6)CCC5)cc3)c3ccc(Br)cc32)cc(Br)c1O,inhibition,[1],20.4%
same,inhibition,[2],35.3%
O=C(Nc1c2c(cc3c1CCC3)CCC2)NS(=O)(=O)c1ccc(OCCOCCOCCOCCN2C(=O)/C(=C/c3cc(Br)c(O)c(Br)c3)c3cc(Br)ccc32)cc1,inhibition,[1],6.7%
same,inhibition,[2],66.6%
O=C(Nc1c2c(cc3c1CCC3)CCC2)NS(=O)(=O)c1ccc(OCCCCCCCCCCCCN2C(=O)/C(=C/c3cc(Br)c(O)c(Br)c3)c3cc(Br)ccc32)cc1,inhibition,[1],14.8%
same,inhibition,[2],19.5%
O=C(Nc1c2c(cc3c1CCC3)CCC2)NS(=O)(=O)c1ccc(OCCOCCN2C(=O)/C(=C/c3cc(Br)c(O)c(Br)c3)c3cc(Br)ccc32)cc1,inhibition,[1],20.5%
same,inhibition,[2],67.3%
COc1ccc(Cl)cc1C(=O)NCCc1ccc(S(=O)(=O)NCCCCCN2C(=O)/C(=C/c3cc(Br)c(O)c(OC)c3)c3cc(Br)ccc32)cc1,inhibition,[1],50.4%
same,inhibition,[2],36.2%
COc1cc(/C=C2/C(=O)N(CCOCCOCCOc3ccc(S(=O)(=O)NC(=O)Nc4c5c(cc6c4CCC6)CCC5)cc3)c3ccc(Br)cc32)cc(Br)c1O,inhibition,[1],16.5%
same,inhibition,[2],39.1%
O=C(Nc1c2c(cc3c1CCC3)CCC2)NS(=O)(=O)c1ccc(OCCCCCCCCN2C(=O)/C(=C/c3cc(Br)c(O)c(Br)c3)c3cc(I)ccc32)cc1,inhibition,[1],41.9%
same,inhibition,[2],26.5%
COc1ccc(Cl)cc1C(=O)NCCc1ccc(S(=O)(=O)NCCOCCOCCN2C(=O)/C(=C/c3cc(Br)c(O)c(OC)c3)c3cc(Br)ccc32)cc1,inhibition,[1],11%
same,inhibition,[2],43.1%
O=C(Nc1c2c(cc3c1CCC3)CCC2)NS(=O)(=O)c1ccc(OCCCCN2C(=O)/C(=C/c3cc(Br)c(O)c(Br)c3)c3cc(I)ccc32)cc1,inhibition,[1],43.1%
same,inhibition,[2],48.5%
COc1ccc(Cl)cc1C(=O)NCCc1ccc(S(=O)(=O)NCCOCCOCCOCCN2C(=O)/C(=C/c3cc(Br)c(O)c(OC)c3)c3cc(Br)ccc32)cc1,inhibition,[1],8.2%
same,inhibition,[2],-4.9%
O=C(Nc1c2c(cc3c1CCC3)CCC2)NS(=O)(=O)c1ccc(OCCOCCN2C(=O)/C(=C/c3cc(Br)c(O)c(Br)c3)c3cc(I)ccc32)cc1,inhibition,[1],70.4%
same,inhibition,[2],98.2%
COc1ccc(Cl)cc1C(=O)NCCc1ccc(S(=O)(=O)NCCCCCCCCN2C(=O)/C(=C/c3cc(Br)c(O)c(OC)c3)c3cc(Br)ccc32)cc1,inhibition,[1],-7.2%
same,inhibition,[2],37.9%
O=C(Nc1c2c(cc3c1CCC3)CCC2)NS(=O)(=O)c1ccc(OCCCCCCCCN2C(=O)/C(=C/c3cc(Br)c(O)c(Br)c3)c3cc(Br)ccc32)cc1,inhibition,[1],-5.3%
same,inhibition,[2],39.6%
O=C(Nc1c2c(cc3c1CCC3)CCC2)NS(=O)(=O)c1ccc(OCCOCCOCCN2C(=O)/C(=C/c3cc(Br)c(O)c(Br)c3)c3cc(I)ccc32)cc1,inhibition,[1],50.5%
same,inhibition,[2],41.7%
O=C(Nc1c2c(cc3c1CCC3)CCC2)NS(=O)(=O)c1ccc(OCCCCCCCCCCCCN2C(=O)/C(=C/c3cc(Br)c(O)c(Br)c3)c3cc(I)ccc32)cc1,inhibition,[1],40.1%
same,inhibition,[2],7.9%
COc1cc(/C=C2/C(=O)N(CCCCCCCCOc3ccc(S(=O)(=O)NC(=O)Nc4c5c(cc6c4CCC6)CCC5)cc3)c3ccc(Br)cc32)cc(Br)c1O,inhibition,[1],27.7%
same,inhibition,[2],19.2%
O=C(Nc1c2c(cc3c1CCC3)CCC2)NS(=O)(=O)c1ccc(OCCOCCOCCOCCN2C(=O)/C(=C/c3cc(Br)c(O)c(Br)c3)c3cc(I)ccc32)cc1,inhibition,[1],45.8%
same,inhibition,[2],73.6%
same,Activity,THP-1 [3],Non-Toxic
same,Activity,THP-1 [4],inactive
same,half-life,[5],0.94 h
same,AUC(0-t) at 24 h,[6],2960 ng·h/mL
same,AUC(0-inf),[7],2970 ng·h/mL
same,Vd,[8],2.31 L/kg
same,clearance,[9],28.4 mL/min/kg
same,Vd,[10],0.39 L/kg
same,half-life,[11],1.26 h
same,Cmax,[12],555 ng/mL
same,AUC(0-t) at 24 h,[13],551 ng·h/mL
same,AUC(0-inf),[14],562 ng·h/mL
same,bioavailability,[15],19%
same,Activity,Mus musculus [16],Active
same,Activity,Mus musculus [17],Dose-Dependent Effect
same,Activity,Mus musculus [18],Active
same,Activity,Mus musculus [19],Active
same,Activity,Mus musculus [20],Active
same,Activity,Mus musculus [21],Active
same,Activity,Mus musculus [22],Active
same,Activity,Mus musculus [23],Active
same,Activity,Mus musculus [24],inactive
same,Activity,Mus musculus [25],inactive
same,Activity,Mus musculus [26],inactive
same,Activity,Mus musculus [27],inactive
same,Activity,Mus musculus [28],inactive
COc1ccc(Cl)cc1C(=O)NCCc1ccc(S(=O)(=O)NCCCCCCCCCCN2C(=O)/C(=C/c3cc(Br)c(O)c(OC)c3)c3cc(Br)ccc32)cc1,inhibition,[1],7.3%
same,inhibition,[2],28%
O=C(Nc1c2c(cc3c1CCC3)CCC2)NS(=O)(=O)c1ccc(OCCCCN2C(=O)/C(=C/c3cc(Br)c(O)c(Br)c3)c3cc(Br)ccc32)cc1,inhibition,[1],42.8%
same,inhibition,[2],49.2%
